Laboratory results taken from US20060258754A1, “Method of treating endothelial dysfunction, oxidative stress and related diseases” (priority 2004, published 2006).
Entries after “also recorded” stand apart in the source; their conditions may differ.

Tests used:
[1] = test system: ROS generated by xanthine/xanthine oxidase; experiment: Superoxide assay in vitro: xanthine/xanthine oxidase, NBT reduction; format: biochemical; conditions: low micromolar concentrations, FIG. 10
Procedure: Superoxide radicals were generated by the reaction of xanthine (1 mM) and xanthine oxidase ([…]) in air-saturated potassium phosphate buffer (pH 7.8 at 25° C.). Superoxide anions were detected by nitroblue tetrazolium (NBT—50 μM) which undergoes reduction by O2-. to its formazan. The rate of reduction was monitored spectrophotometrically at 560 nm with an Ultrospec 1000 (Pharmacia Biotech, Cambridge, England). SOD-1, by scavanging O2-. Diminishes the rate of reduction of NBT. The volume was fixed at 2 mL. Each experiment was run in duplicate.

[2] = test system: bovine aortic endothelial cells; experiment: Superoxide assay in cells: ROS in high glucose (CM-H2DCFDA); format: cell-based; conditions: for reduction of ROS in cells: 30 mM glucose (ROS increased 2 fold vs 5 mM), 20, 50, 100 μM, FIG. 9; for maximal concentration for ROS reduction: 30 mM glucose, tested 20, 50, 100 μM
Procedure: Bovine aortic endothelial cells were incubated in 5 mM (control) or 30 mM (hyperglycemic) glucose for 2 hours and reactive oxygen species (ROS) determined fluorometrically using the probe CM-H2DCFDA as described by Brownlee et al. Cells were loaded with 10 μM CM-H2DCFDDA, incubated for 45 min at 37°, and then analyzed in an HTS 7000 Bio assay Fluorescent Plate Reader using HT software. ROS production is reported as nmol/mL based on a standard curve produced with H2O2.

vascular mesenteric bed = experiment: Rat arteriolar mesenteric bed: acetylcholine-evoked decrease in perfusion pressure after 4-week oral treatment; format: in vivo, alloxan-diabetic male Wistar rats; conditions: for effect on microvascular endothelial dysfunction: chronic (4-week) oral administration, highest acetyl choline concentrations, FIG. 4
Procedure: Male Wistar rats, weighing between 230-250 g, fed regular chow, with free access to water were separated in four groups (n=10/each). The first two groups, termed normoglycemic, were treated with saline (0.1 mL/100 g/12 h) by the oral route (intragastric gavage) or untreated for four weeks. The second two groups, hyperglycemic, were treated with saline (0.1 mL/100 g/12 h) or treated with D-chiro-inositol (20 mg/kg/12 h) under the same protocol. […] Diabetes was induced by a single intravenous injection of 45 mg/kg alloxan as described by Sannomiya et al., 1997 ( ). Diabetes was diagnosed 96 h after injection by blood glucose assay >200 mg/dL. All protocols were approved by the local committee and follow the Guide for the Care and Use of Laboratory Animals published by the US National Institutes of Health (NIH Publication No. 85-23, revised 1996).
The mesentery was carefully removed by cutting close to the intestinal border with a small scissors. […] The vascular bed was rapidly perfused with warm KHS (37° C.; pH 7.4; gassed with 95% O2 in 5% CO2) in an open system with a constant flow of 4 ml/min maintained with a peristaltic pump. Alterations in perfusion pressure were continuously recorded in a four-channel polygraph (Narco Biosystems, Houston, Tex., USA) by means of a pressure transducer (P23 Gould Stratham, Oxnard, Calif., USA). After a 30 minute equilibration period, phenylephrine (1 to 5 μM) was infused by means of an infusion pump at a constant rate (0.1 ml/min) in order to achieve a stable perfusion pressure (100-120 mm Hg). Dose response curves were performed with vasodilators, i.e. acetylcholine (Ach; 10^-9 to 10^-3 M). Drugs were injected as 50 μL boluses, previously shown not to effect perfusion pressure in a side arm just above the cannula in the mesenteric artery. At least 6 separate experiments were performed each in duplicate.

[3] = test system: renal vascular bed of perfused kidneys; experiment: Acute perfusion of diabetic rabbit kidneys: acetylcholine-induced decrease in perfusion pressure; parameters: species or system alloxan-diabetic rabbits; conditions: 3-week diabetic rabbit kidneys; for restoration of vasorelaxant effect of acetylcholine, DCI versus db-DCI: repeated perfusion experiment, 1 μM; for restoration of endothelial function (acetylcholine induced decrease in perfusion pressure): perfusion with 1 μM, first experiment
Procedure: (§1) Male California rabbits, weighing 2-2.5 kg, were provided by the vivarium of the Biomedicine Institute-UFC. Diabetes was induced by intraperitoneal injection of alloxan (150 mg/kg) and only animals with plasma glucose concentration above 200 mg/dl were included in the study. Age-matched euglycemic rabbits were used as controls.
Kidneys and aortic rings are harvested from diabetic rabbits after 3 weeks of alloxan injection. They are perfused with KHS containing 1 μM D-chiro-inositol, pinitol, dibutyryl D-chiro-inositol, myo-inositol or saline for 1 hour. Dose response curves for acetylcholine are then performed following prior phenylephrine vasoconstriction as described. At least 6 separate experiments will be performed each in duplicate.
Kidneys and aortic rings were harvested from diabetic rabbits after 3 weeks of alloxan injection. The animals were sacrificed under sodium pentobarbital anesthesia (Hypnol®, 150-200 mg/kg). […]. Rabbit kidneys were obtained from male New Zealand rabbits (1-1.5 kg) after cannulation of the renal artery in situ. [Thereafter the organ is rapidly perfused with warm KHS at 37° C., pH 7.4 and gassed with 95% O2 in 5% CO2 in an open system with a constant flow adjusted to yield 1 mL/g/min and maintained by a peristaltic pump. The alterations in perfusion pressure are continuously recorded in a four-channel polygraph (Narco Biosystems, Houston, Tex., USA) by means of a pressure transducer (P23 Gould Stratham, Oxnard, Calif., USA). After a 30 minute equilibration period, phenylephrine (1 to 5 μM) is infused by means of an infusion pump at a constant rate (0.1 ml/min) in order to achieve a stable perfusion pressure (100-120 mm Hg). Concentration-response curves are performed to the vasodilators, i.e. acetylcholine (Ach; 10^-9 to 10^-3 M). Drugs are injected as a 50 μL bolus, previously shown not to effect perfusion pressure in an arm side just above the cannula in the renal artery.] Following penectomy, the corpus cavernosum was dissected in Krebs solution and cleared of the tunica albuginea and surrounding tissues. Strips (2 cm) were mounted vertically in isometric baths (5 mL) in Krebs-Henseleit solution (37° C., pH 7.4 gassed with 95% O2 in 5% CO2) enriched with indomethecin (10 μM) and guanethedine (10 μM) in order to avoid prostanoid or neuronal norandrenergic interaction. After a 60 minute period for stabilization, tissues were precontracted with 10 μM phenylephrine in order to increase the basal tonus. Thereafter, frequency response curves to transmural electrical field stimulations (EFS—square wave pulses: 10 s train; 20 V, 0.5 ms, 2-16 Hz) were performed until two stable reproducible curves were attained. […]

penile corpus cavernosus = experiment: Rabbit penile corpus cavernosus: relaxation to electrical field stimulation after 60 min incubation; parameters: species or system low dose alloxan-diabetic rabbit; conditions: 1 μM; for restoration of vasorelaxant effect of electrical stimulation of the pudendal nerve: EFS 2-16 Hz, FIG. 8
Procedure: as §1
Kidneys and aortic rings were harvested from diabetic rabbits after 3 weeks of alloxan injection. The animals were sacrificed under sodium pentobarbital anesthesia (Hypnol®, 150-200 mg/kg). […]. Rabbit kidneys were obtained from male New Zealand rabbits (1-1.5 kg) after cannulation of the renal artery in situ. [Thereafter the organ is rapidly perfused with warm KHS at 37° C., pH 7.4 and gassed with 95% O2 in 5% CO2 in an open system with a constant flow adjusted to yield 1 mL/g/min and maintained by a peristaltic pump. The alterations in perfusion pressure are continuously recorded in a four-channel polygraph (Narco Biosystems, Houston, Tex., USA) by means of a pressure transducer (P23 Gould Stratham, Oxnard, Calif., USA). After a 30 minute equilibration period, phenylephrine (1 to 5 μM) is infused by means of an infusion pump at a constant rate (0.1 ml/min) in order to achieve a stable perfusion pressure (100-120 mm Hg). Concentration-response curves are performed to the vasodilators, i.e. acetylcholine (Ach; 10^-9 to 10^-3 M). Drugs are injected as a 50 μL bolus, previously shown not to effect perfusion pressure in an arm side just above the cannula in the renal artery.] Following penectomy, the corpus cavernosum was dissected in Krebs solution and cleared of the tunica albuginea and surrounding tissues. Strips (2 cm) were mounted vertically in isometric baths (5 mL) in Krebs-Henseleit solution (37° C., pH 7.4 gassed with 95% O2 in 5% CO2) enriched with indomethecin (10 μM) and guanethedine (10 μM) in order to avoid prostanoid or neuronal norandrenergic interaction. After a 60 minute period for stabilization, tissues were precontracted with 10 μM phenylephrine in order to increase the basal tonus. Thereafter, frequency response curves to transmural electrical field stimulations (EFS—square wave pulses: 10 s train; 20 V, 0.5 ms, 2-16 Hz) were performed until two stable reproducible curves were attained. Then, frequency response curves were repeated after 60 min incubation with saline or 1 μM pinitol, DCI or db-DCI in the alloxan-diabetic rabbits. They are perfused with KHS containing 1 μM D-chiro-inositol, pinitol, dibutyryl D-chiro-inositol, myo-inositol or saline for 60 min. Dose response curves for acetylcholine are then performed following prior phenylephrine vasoconstriction as described. At least 6 separate experiments were performed each in duplicate.

[4] = listed as dibutyryl D-chiro-inositol

SMILES	reduction of ROS generated by xanthine/xanthine oxidase [1]	reduction of ROS generated by xanthine/xanthine oxidase ([1]; listed as D-chiro-inositol)	reduction of ROS in cells [2]	reduction of ROS in cells ([2]; listed as D-chiro-inositol)	maximal concentration for ROS reduction [2] [µM]	effect on microvascular endothelial dysfunction (vascular mesenteric bed)	effect on microvascular endothelial dysfunction (vascular mesenteric bed; listed as D-chiro-inositol)	maximal decrease in perfusion pressure to acetylcholine (vascular mesenteric bed; tissues from alloxan-diabetic rats treated with D-chiro-inositol 20 mg/kg/12 h by gavage for 4 weeks, saline-treated diabetic 23±5%, normoglycemic 61±3.7%) [%]	restoration of vasorelaxant effect of acetylcholine, DCI versus db-DCI [3]	restoration of vasorelaxant effect of electrical stimulation of the pudendal nerve (penile corpus cavernosus)	reduction of ROS generated by xanthine/xanthine oxidase [1, 4]	reduction of ROS in cells ([2]; listed as Dibutyryl-DCI)	effect on microvascular endothelial dysfunction (vascular mesenteric bed; [4])	restoration of endothelial function (acetylcholine induced decrease in perfusion pressure) ([3]; listed as db-DCI)	restoration of endothelial function (acetylcholine induced decrease in perfusion pressure) [3, 4]	restoration of vasorelaxant effect at EFS of 4 Hz (penile corpus cavernosus; EFS 4 Hz)
OC1C(O)C(O)C(O)C(O)C1O [DCI, D-chiro-inositol]	reduced ROS in a low micromolar concentration dependant manner	equally effective	reduced back to basal concentrations in a dose dependant manner	reduced to basal concentrations in a dose dependent manner	50	approximately equally effective	effective	52±6	partially restored	restoration of vasorelaxant effect						
CCCC(=O)O[C@@H]1[C@@H](O)[C@@H](O)[C@H](O)[C@H](O)[C@H]1OC(=O)CCC [dbDCI, 3,4-dibutyryl-D-chiroinositol]	reduced ROS in a low micromolar concentration dependant manner; also recorded: statistically more effective than the other 3 inositols		reduced back to basal concentrations in a dose dependant manner		20	perhaps slightly better than pinitol and DCI			partially restored	restoration of vasorelaxant effect; also recorded: greatest effect at all levels of electrical stimulation	statistically more effective than the other 3 inositols	greater effect of reducing ROS than DCI at lower concentrations	perhaps slightly better than pinitol and D-chiro-inositol	completely restored endothelial function	restored to normal	Almost complete restoration
